Measurements taken from article PMC3856494, “Radiofluorination and biological evaluation of N-aryl-oxadiazolyl-propionamides as potential radioligands for PET imaging of cannabinoid CB2 receptors” (Organic and Medicinal Chemistry Letters, 2013).
Like-named read-outs stand apart in the source and are kept apart here.

Columns and labels:
human CB2R = human CB2R (Homo sapiens, UniProt P34972); assay: In vitro CB receptor affinity assay, displacement of [3H]CP55,940, CHO cells transfected with human CB2R; type: binding
Sequence of human CB2R (P34972 whole entry): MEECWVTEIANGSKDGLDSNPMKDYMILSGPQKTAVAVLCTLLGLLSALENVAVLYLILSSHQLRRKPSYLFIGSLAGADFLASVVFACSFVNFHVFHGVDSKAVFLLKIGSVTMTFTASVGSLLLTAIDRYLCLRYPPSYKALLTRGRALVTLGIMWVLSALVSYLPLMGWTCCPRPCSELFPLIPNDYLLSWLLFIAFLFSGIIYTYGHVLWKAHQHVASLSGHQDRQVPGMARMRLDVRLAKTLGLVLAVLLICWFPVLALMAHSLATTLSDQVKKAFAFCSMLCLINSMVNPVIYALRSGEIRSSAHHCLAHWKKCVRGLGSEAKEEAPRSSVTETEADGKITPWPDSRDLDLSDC
Experimental: (§1) For binding experiments, Chinese hamster ovary (CHO) cell lines stably transfected with human CB1R human and CB2R were used according to the procedures previously described. […] The binding experiments were performed in triplicates, and data were given as mean values from independent experiments.

human CB1R = human CB1R (Homo sapiens, UniProt P21554); assay: In vitro CB receptor affinity assay, displacement of [3H]CP55,940, CHO cells transfected with human CB1R; type: binding; conditions: [3H]CP55,940 displacement, hCB1R CHO cells; read-out: Ki CB1R
Sequence of human CB1R (P21554 whole entry): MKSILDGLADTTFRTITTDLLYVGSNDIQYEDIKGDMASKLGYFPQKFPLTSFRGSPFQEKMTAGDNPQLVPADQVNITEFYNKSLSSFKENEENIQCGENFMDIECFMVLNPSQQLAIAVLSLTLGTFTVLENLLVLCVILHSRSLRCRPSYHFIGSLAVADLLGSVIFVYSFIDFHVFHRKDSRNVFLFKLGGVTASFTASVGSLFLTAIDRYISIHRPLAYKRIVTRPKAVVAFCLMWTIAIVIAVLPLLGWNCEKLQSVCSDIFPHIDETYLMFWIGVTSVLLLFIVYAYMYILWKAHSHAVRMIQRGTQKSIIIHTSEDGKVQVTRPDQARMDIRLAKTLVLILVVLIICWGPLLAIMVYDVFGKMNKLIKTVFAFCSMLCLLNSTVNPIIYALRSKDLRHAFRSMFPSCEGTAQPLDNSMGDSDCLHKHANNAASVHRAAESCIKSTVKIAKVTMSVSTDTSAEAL
Experimental: as §1

[1] = HPLC-based logD determination; type: physicochemical; conditions: RP-HPLC, reference compounds, n = 3 to 6
Experimental: The distribution coefficients of [^18F]1 and [^18F]2 were also calculated from RP-HPLC retention times in three different systems: (1) isocratic elution (60% MeCN/20 mM NH4OAc at a flow rate of 1 mL/min) and (2) gradient elution (starting from 10% MeCN/20 mM NH4OAc aq. for 10 min with a gradient to 90% MeCN/20 mM NH4OAc aq. over 30 min at a flow rate of 1 mL/min) on a Reprosil-Pur C18-AQ column (5 μm, 250 × 4.6 mm, Dr. Maisch HPLC GmbH, Ammerbruch-Entringen, Germany), and (3) isocratic elution (52.5% MeCN/20 mM NH4OAc at a flow rate of 1 mL/min) on a Prodigy 5 μm C8 (250 × 4 mm; Phenomenex Ltd, Aschaffenburg, Germany) using the reference compounds following the protocol according to the EU guideline 67/548/EWG [44].

Row | SMILES | Ki (human CB2R) [µM] | Ki (human CB1R) [µM] | chromatographic logD ([1]; gradient 10% to 90% MeCN/20 mM NH4OAc, read-out: logD Reposil-Pur C18-AQ Gradient) | chromatographic logD ([1]; isocratic 52.5% MeCN/20 mM NH4OAc, read-out: logD Prodigy 5 μ C8 Isocratic) | chromatographic logD ([1]; isocratic 60% MeCN/20 mM NH4OAc, read-out: logD Reposil-Pur C18-AQ Isocratic) | Ki (human CB2R; [3H]CP55,940 displacement, hCB2R CHO cells, read-out: Ki CB2R) [µM] | melting point [°C]
1 | CCn1c2ccccc2c2cc(NC(=O)CCc3nc(-c4ccc(F)cc4Br)no3)ccc21 [Compound 2, 3-[3-(2-Bromo-4-fluorophenyl)-1,2,4-oxadiazol-5-yl]-N-(9-ethyl-9H-carbazol-3-yl)propanamide] | 0.00427 ± 0.00303 | > 1 | 4.35 ± 0.11 | 4.4 ± 0.35 | 4.87 ± 0.36 | – | –
2 | O=C(O)CCc1nc(-c2ccc(F)cc2Br)no1 [Compound 10, 3-(3-(2-Bromo-4-fluorophenyl)-1,2,4-oxadiazol-5-yl)propanoic acid] | – | > 1 | – | – | – | > 1 | 104
